Source: patent US11813305B2, “Endoplasmic reticulum stress as a predictive tool in cancer therapy and a combination therapy for the treatment of cancer” (IMMUNE SYSTEM KEY LTD., priority 2016, dated 2023)
Square brackets hold non-standard residues; d marks the D form. Peptide text beside a SMILES is read from it.

How the values were obtained:
[1] = Safety and tolerability (adverse events, DLT, MTD), phase I study; format: in vivo, human
From the text: The present clinical study is a formal open label phase I dose escalation study. The primary objective was to determine the maximum tolerated dose (MTD) and safety profile of dTCApFs. Assessments included drug exposure, adverse events (AEs; graded according to the Common Terminology Criteria for Adverse Events (CTCAE), and characterization of dose-limiting toxicities (DLTs). Other objectives included assessment of serum levels of angiogenic factors after dTCApFs administration, pharmacokinetics (PK) and pharmacodynamics (PD) analyses, as well as assessment of receptor staining and tumor response. […]
Subjects with evaluable or measurable disease are assessed according to the response evaluation criteria in solid tumors (RECIST) version 1.1 every 2 cycles, where a cycle is defined as 4 weeks of treatment with three administrations per week. Tumor lesion measurements and changes from baseline are summarized by cycle and dose cohort.

[2] = test system: healthy human peripheral immune cells; format: cell-based; conditions: data not shown
From the text: Therefore, without wishing to be bound by theory, dTCApFs appears to selectively affect cancer cells.

CC(C)C[C@@H](NC(=O)[C@H](NC(=O)[C@@H](CO)NC(=O)[C@H]1CCCN1C(=O)[C@@H](CC(C)C)NC(=O)[C@@H](Cc1ccccc1)NC(=O)[C@@H](Cc1ccccc1)NC(=O)[C@H](NC(=O)[C@@H](Cc1c[nH]c2ccccc12)NC(=O)[C@H](N)Cc1c[nH]c2ccccc12)[C@H](C)O)[C@H](C)O)C(=O)N[C@H](Cc1c[nH]c2ccccc12)C(=O)N[C@H](CCC(=O)O)C(=O)N[C@H](CCCNC(=N)N)C(=O)N[C@H](CCCCN)C(=O)O [dTCApFs, Trp Trp Thr Phe Phe Leu Pro Ser Thr Leu Trp Glu Arg Lys] (H-[dW][dW][dT][dF][dF][dL][dP][dS][dT][dL][dW][dE][dR][dK]-OH; N-terminus and C-terminus assumed)
Adverse event Grade 1: Abdominal pain ([1]; 6 mg/m^2, n = 3): 0
Adverse event Grade 1: Anemia ([1]; 6 mg/m^2, n = 3): 3
Adverse event Grade 1: Bowel obstruction ([1]; 6 mg/m^2, n = 3): 1
Adverse event Grade 1: Dehydration ([1]; 6 mg/m^2, n = 3): 0
Adverse event Grade 1: Diarrhea ([1]; 6 mg/m^2, n = 3): 0
Adverse event Grade 1: Fatigue ([1]; 6 mg/m^2, n = 3): 0
Adverse event Grade 1: GI hemorrhage ([1]; 6 mg/m^2, n = 3): 1
Adverse event Grade 1: Hypertension ([1]; 6 mg/m^2, n = 3): 3
Adverse event Grade 1: Increased INR ([1]; 6 mg/m^2, n = 3): 0
Adverse event Grade 1: Neuropathy ([1]; 6 mg/m^2, n = 3): 0
Adverse event Grade 1: Vomiting ([1]; 6 mg/m^2, n = 3): 2
Adverse event Grade 2: ALT increase ([1]; 6 mg/m^2, n = 3): 0
Adverse event Grade 2: AST increase ([1]; 6 mg/m^2, n = 3): 0
Adverse event Grade 2: Bilirubin increase ([1]; 6 mg/m^2, n = 3): 0
Adverse event Grade 2: Cough ([1]; 6 mg/m^2, n = 3): 0
Adverse event Grade 2: Liver dysfunction ([1]; 6 mg/m^2, n = 3): 0
Adverse event Grade 2: Pain, leg ([1]; 6 mg/m^2, n = 3): 0
Adverse event Grade 2: Pain, upper back ([1]; 6 mg/m^2, n = 3): 0
Adverse event Grade 2: Pruritus ([1]; 6 mg/m^2, n = 3): 0
Adverse event Grade 2: Urinary tract infection ([1]; 6 mg/m^2, n = 3): 0
Adverse event Grade 2: Urticaria ([1]; 6 mg/m^2, n = 3): 0
Adverse event Grade 3: Bilirubin increase ([1]; 6 mg/m^2, n = 3): 0
Adverse event Grade 3: Bowel obstruction ([1]; 6 mg/m^2, n = 3): 1
Adverse event Grade 3: Diarrhea ([1]; 6 mg/m^2, n = 3): 0
Adverse event Grade 3: GI hemorrhage ([1]; 6 mg/m^2, n = 3): 1
Adverse event Grade 3: Hypertension ([1]; 6 mg/m^2, n = 3): 2
Adverse event Grade 3: Increased INR ([1]; 6 mg/m^2, n = 3): 0
Adverse event Grade 4: Vomiting ([1]; 6 mg/m^2, n = 3): 0
Adverse event Grade 1: Abdominal pain ([1]; 12 mg/m^2, n = 3): 1
Adverse event Grade 1: Anemia ([1]; 12 mg/m^2, n = 3): 0
Adverse event Grade 1: Bowel obstruction ([1]; 12 mg/m^2, n = 3): 0
Adverse event Grade 1: Dehydration ([1]; 12 mg/m^2, n = 3): 0
Adverse event Grade 1: Diarrhea ([1]; 12 mg/m^2, n = 3): 2
Adverse event Grade 1: Fatigue ([1]; 12 mg/m^2, n = 3): 1
Adverse event Grade 1: GI hemorrhage ([1]; 12 mg/m^2, n = 3): 0
Adverse event Grade 1: Hypertension ([1]; 12 mg/m^2, n = 3): 1
Adverse event Grade 1: Increased INR ([1]; 12 mg/m^2, n = 3): 0
Adverse event Grade 1: Neuropathy ([1]; 12 mg/m^2, n = 3): 1
Adverse event Grade 1: Vomiting ([1]; 12 mg/m^2, n = 3): 0
Adverse event Grade 2: ALT increase ([1]; 12 mg/m^2, n = 3): 0
Adverse event Grade 2: AST increase ([1]; 12 mg/m^2, n = 3): 0
Adverse event Grade 2: Bilirubin increase ([1]; 12 mg/m^2, n = 3): 0
Adverse event Grade 2: Cough ([1]; 12 mg/m^2, n = 3): 1
Adverse event Grade 2: Liver dysfunction ([1]; 12 mg/m^2, n = 3): 0
Adverse event Grade 2: Pain, leg ([1]; 12 mg/m^2, n = 3): 2
Adverse event Grade 2: Pain, upper back ([1]; 12 mg/m^2, n = 3): 0
Adverse event Grade 2: Pruritus ([1]; 12 mg/m^2, n = 3): 0
Adverse event Grade 2: Urinary tract infection ([1]; 12 mg/m^2, n = 3): 1
Adverse event Grade 2: Urticaria ([1]; 12 mg/m^2, n = 3): 0
Adverse event Grade 3: Bilirubin increase ([1]; 12 mg/m^2, n = 3): 0
Adverse event Grade 3: Bowel obstruction ([1]; 12 mg/m^2, n = 3): 0
Adverse event Grade 3: Diarrhea ([1]; 12 mg/m^2, n = 3): 1
Adverse event Grade 3: GI hemorrhage ([1]; 12 mg/m^2, n = 3): 0
Adverse event Grade 3: Hypertension ([1]; 12 mg/m^2, n = 3): 1
Adverse event Grade 3: Increased INR ([1]; 12 mg/m^2, n = 3): 0
Adverse event Grade 4: Vomiting ([1]; 12 mg/m^2, n = 3): 0
Adverse event Grade 1: Abdominal pain ([1]; 24 mg/m^2, n = 3): 2
Adverse event Grade 1: Anemia ([1]; 24 mg/m^2, n = 3): 0
Adverse event Grade 1: Bowel obstruction ([1]; 24 mg/m^2, n = 3): 0
Adverse event Grade 1: Dehydration ([1]; 24 mg/m^2, n = 3): 0
Adverse event Grade 1: Diarrhea ([1]; 24 mg/m^2, n = 3): 0
Adverse event Grade 1: Fatigue ([1]; 24 mg/m^2, n = 3): 0
Adverse event Grade 1: GI hemorrhage ([1]; 24 mg/m^2, n = 3): 0
Adverse event Grade 1: Hypertension ([1]; 24 mg/m^2, n = 3): 1
Adverse event Grade 1: Increased INR ([1]; 24 mg/m^2, n = 3): 0
Adverse event Grade 1: Neuropathy ([1]; 24 mg/m^2, n = 3): 1
Adverse event Grade 1: Vomiting ([1]; 24 mg/m^2, n = 3): 0
Adverse event Grade 2: ALT increase ([1]; 24 mg/m^2, n = 3): 0
Adverse event Grade 2: AST increase ([1]; 24 mg/m^2, n = 3): 0
Adverse event Grade 2: Bilirubin increase ([1]; 24 mg/m^2, n = 3): 0
Adverse event Grade 2: Cough ([1]; 24 mg/m^2, n = 3): 0
Adverse event Grade 2: Liver dysfunction ([1]; 24 mg/m^2, n = 3): 0
Adverse event Grade 2: Pain, leg ([1]; 24 mg/m^2, n = 3): 0
Adverse event Grade 2: Pain, upper back ([1]; 24 mg/m^2, n = 3): 0
Adverse event Grade 2: Pruritus ([1]; 24 mg/m^2, n = 3): 0
Adverse event Grade 2: Urinary tract infection ([1]; 24 mg/m^2, n = 3): 0
Adverse event Grade 2: Urticaria ([1]; 24 mg/m^2, n = 3): 0
Adverse event Grade 3: Bilirubin increase ([1]; 24 mg/m^2, n = 3): 0
Adverse event Grade 3: Bowel obstruction ([1]; 24 mg/m^2, n = 3): 0
Adverse event Grade 3: Diarrhea ([1]; 24 mg/m^2, n = 3): 0
Adverse event Grade 3: GI hemorrhage ([1]; 24 mg/m^2, n = 3): 0
Adverse event Grade 3: Hypertension ([1]; 24 mg/m^2, n = 3): 1
Adverse event Grade 3: Increased INR ([1]; 24 mg/m^2, n = 3): 0
Adverse event Grade 4: Vomiting ([1]; 24 mg/m^2, n = 3): 0
Adverse event Grade 1: Abdominal pain ([1]; 48 mg/m^2, n = 3): 0
Adverse event Grade 1: Anemia ([1]; 48 mg/m^2, n = 3): 0
Adverse event Grade 1: Bowel obstruction ([1]; 48 mg/m^2, n = 3): 0
Adverse event Grade 1: Dehydration ([1]; 48 mg/m^2, n = 3): 0
Adverse event Grade 1: Diarrhea ([1]; 48 mg/m^2, n = 3): 0
Adverse event Grade 1: Fatigue ([1]; 48 mg/m^2, n = 3): 1
Adverse event Grade 1: GI hemorrhage ([1]; 48 mg/m^2, n = 3): 0
Adverse event Grade 1: Hypertension ([1]; 48 mg/m^2, n = 3): 0
Adverse event Grade 1: Increased INR ([1]; 48 mg/m^2, n = 3): 1
Adverse event Grade 1: Neuropathy ([1]; 48 mg/m^2, n = 3): 0
Adverse event Grade 1: Vomiting ([1]; 48 mg/m^2, n = 3): 0
Adverse event Grade 2: ALT increase ([1]; 48 mg/m^2, n = 3): 0
Adverse event Grade 2: AST increase ([1]; 48 mg/m^2, n = 3): 0
Adverse event Grade 2: Bilirubin increase ([1]; 48 mg/m^2, n = 3): 1
Adverse event Grade 2: Cough ([1]; 48 mg/m^2, n = 3): 0
Adverse event Grade 2: Liver dysfunction ([1]; 48 mg/m^2, n = 3): 0
Adverse event Grade 2: Pain, leg ([1]; 48 mg/m^2, n = 3): 0
Adverse event Grade 2: Pain, upper back ([1]; 48 mg/m^2, n = 3): 0
Adverse event Grade 2: Pruritus ([1]; 48 mg/m^2, n = 3): 0
Adverse event Grade 2: Urinary tract infection ([1]; 48 mg/m^2, n = 3): 0
Adverse event Grade 2: Urticaria ([1]; 48 mg/m^2, n = 3): 0
Adverse event Grade 3: Bilirubin increase ([1]; 48 mg/m^2, n = 3): 1
Adverse event Grade 3: Bowel obstruction ([1]; 48 mg/m^2, n = 3): 0
Adverse event Grade 3: Diarrhea ([1]; 48 mg/m^2, n = 3): 0
Adverse event Grade 3: GI hemorrhage ([1]; 48 mg/m^2, n = 3): 0
Adverse event Grade 3: Hypertension ([1]; 48 mg/m^2, n = 3): 0
Adverse event Grade 3: Increased INR ([1]; 48 mg/m^2, n = 3): 1
Adverse event Grade 4: Vomiting ([1]; 48 mg/m^2, n = 3): 0
Adverse event Grade 1: Abdominal pain ([1]; 96 mg/m^2, n = 5): 0
Adverse event Grade 1: Anemia ([1]; 96 mg/m^2, n = 5): 0
Adverse event Grade 1: Bowel obstruction ([1]; 96 mg/m^2, n = 5): 0
Adverse event Grade 1: Dehydration ([1]; 96 mg/m^2, n = 5): 1
Adverse event Grade 1: Diarrhea ([1]; 96 mg/m^2, n = 5): 2
Adverse event Grade 1: Fatigue ([1]; 96 mg/m^2, n = 5): 0
Adverse event Grade 1: GI hemorrhage ([1]; 96 mg/m^2, n = 5): 0
Adverse event Grade 1: Hypertension ([1]; 96 mg/m^2, n = 5): 1
Adverse event Grade 1: Increased INR ([1]; 96 mg/m^2, n = 5): 0
Adverse event Grade 1: Neuropathy ([1]; 96 mg/m^2, n = 5): 0
Adverse event Grade 1: Vomiting ([1]; 96 mg/m^2, n = 5): 1
Adverse event Grade 2: ALT increase ([1]; 96 mg/m^2, n = 5): 1
Adverse event Grade 2: AST increase ([1]; 96 mg/m^2, n = 5): 1
Adverse event Grade 2: Bilirubin increase ([1]; 96 mg/m^2, n = 5): 1
Adverse event Grade 2: Cough ([1]; 96 mg/m^2, n = 5): 0
Adverse event Grade 2: Liver dysfunction ([1]; 96 mg/m^2, n = 5): 1
Adverse event Grade 2: Pain, leg ([1]; 96 mg/m^2, n = 5): 0
Adverse event Grade 2: Pain, upper back ([1]; 96 mg/m^2, n = 5): 1
Adverse event Grade 2: Pruritus ([1]; 96 mg/m^2, n = 5): 1
Adverse event Grade 2: Urinary tract infection ([1]; 96 mg/m^2, n = 5): 0
Adverse event Grade 2: Urticaria ([1]; 96 mg/m^2, n = 5): 2
Adverse event Grade 3: Bilirubin increase ([1]; 96 mg/m^2, n = 5): 1
Adverse event Grade 3: Bowel obstruction ([1]; 96 mg/m^2, n = 5): 0
Adverse event Grade 3: Diarrhea ([1]; 96 mg/m^2, n = 5): 1
Adverse event Grade 3: GI hemorrhage ([1]; 96 mg/m^2, n = 5): 0
Adverse event Grade 3: Hypertension ([1]; 96 mg/m^2, n = 5): 2
Adverse event Grade 3: Increased INR ([1]; 96 mg/m^2, n = 5): 0
Adverse event Grade 4: Vomiting ([1]; 96 mg/m^2, n = 5): 1
relation of adverse events (AEs) to study drug ([1]; AEs of Table 4): None were related to study drug
grade 4 AE vomiting, number of patients ([1]; all dose groups): 1
dose-limiting toxicities (DLTs) ([1]; any patient up to cohort 5 (6-96 mg/m^2)): No dose-limiting toxicities (DLTs) were observed
MTD ([1]; doses of 6, 12, 24, 48, and 96 mg/m^2 i.v., 3 times/week): not reached
tolerability of treatment ([1]; overall, 17 patients): well-tolerated with no cumulative toxicity
cell death [2]: only minor cell death occurred
